This is an account of results in patent publication US9975903B2, “Condensed heterocyclic compound” (Takeda Pharmaceutical Company Limited, priority 2014, dated 2018).

Counter-ions that a name gives are not always drawn.

For the test, the target named is T1, Human recombinant enteropeptidase (Homo sapiens, UniProt P98073).
T1 construct: purchased ITSI-Biosciences LLC #REN-260
T1 sequence (P98073 whole entry): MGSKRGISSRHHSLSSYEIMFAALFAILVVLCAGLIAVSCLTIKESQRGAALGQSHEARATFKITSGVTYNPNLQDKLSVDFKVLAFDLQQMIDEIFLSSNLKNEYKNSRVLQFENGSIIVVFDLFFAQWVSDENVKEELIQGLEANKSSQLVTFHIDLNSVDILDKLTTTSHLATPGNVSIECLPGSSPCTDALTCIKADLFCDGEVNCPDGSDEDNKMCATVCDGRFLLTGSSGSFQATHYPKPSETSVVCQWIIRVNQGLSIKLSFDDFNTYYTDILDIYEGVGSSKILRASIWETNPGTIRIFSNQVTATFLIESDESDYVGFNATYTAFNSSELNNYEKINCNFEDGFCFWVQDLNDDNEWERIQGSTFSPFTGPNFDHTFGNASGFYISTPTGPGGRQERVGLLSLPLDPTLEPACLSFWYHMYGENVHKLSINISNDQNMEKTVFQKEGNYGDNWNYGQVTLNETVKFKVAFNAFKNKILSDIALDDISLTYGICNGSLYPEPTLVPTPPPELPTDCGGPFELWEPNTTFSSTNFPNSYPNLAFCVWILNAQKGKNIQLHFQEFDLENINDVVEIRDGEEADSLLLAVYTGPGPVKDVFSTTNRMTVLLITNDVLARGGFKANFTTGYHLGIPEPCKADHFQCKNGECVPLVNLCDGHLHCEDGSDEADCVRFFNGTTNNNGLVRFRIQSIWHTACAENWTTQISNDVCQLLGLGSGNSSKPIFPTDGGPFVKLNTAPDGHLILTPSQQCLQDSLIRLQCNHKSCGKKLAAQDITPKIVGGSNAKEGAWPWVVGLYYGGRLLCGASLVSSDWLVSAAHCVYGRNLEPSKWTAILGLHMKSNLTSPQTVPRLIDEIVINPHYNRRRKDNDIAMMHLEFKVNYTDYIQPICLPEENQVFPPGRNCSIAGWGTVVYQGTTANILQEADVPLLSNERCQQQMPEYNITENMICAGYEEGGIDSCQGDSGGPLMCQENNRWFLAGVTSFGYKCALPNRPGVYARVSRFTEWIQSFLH
Put plainly: Human enteropeptidase inhibitory activity (Test Example 1). Format: biochemical. The conditions noted are these: 3.3 μM test compound; inhibition rate from fluorescence intensity at 2 hours after the start of the reaction; read-out: 3.3 μM Inhibition. The essentials: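 Recombinant human enteropeptidase in 50 mM Tricine pH 8.0, 0.01% Tween 20, 10 mM CaCl2, with a 5FAM/CPQ2-quenched peptide substrate (2.1 μM solution before mixing). Compound came from 1 mM DMSO stock diluted 100-fold in buffer. Fluorescence (ex 485/em 535 nm) at 2 h gave % inhibition versus no-compound and no-enzyme controls.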
For the compound `N=C(N)Nc1ccc2c(c1)CCCCc1c(cccc1C(=O)N(CC(=O)O)Cc1cccc(C(=O)O)c1)OC2=O` [Example 128], the inhibition (usually the change of the read-out against control, counted positive when it falls) at 3.3 µM was 100%.

As to `N=C(N)Nc1ccc2c(c1)CCCOc1cc(CCC(=O)N[C@@H](CC(=O)O)C(=O)O)ccc1OC2=O` [Example 49, N-(3-(10-carbamimidamido-13-oxo-6,7,8,13-tetrahydro-dibenzo[b,f] [1,4]dioxecin-3-yl)propanoyl)-aspartic acid], the inhibition at 3.3 µM was found to be 100%. With `N=C(N)Nc1ccc2c(c1)CCCOc1c(CCC(=O)NC(CC(=O)O)CC(=O)O)cccc1OC2=O` [Example 96, 3-((3-(10-carbamimidamido-13-oxo-6,7,8,13-tetrahydro-dibenzo[b,f] [1,4]dioxecin-4-yl)propanoyl)amino) pentanedioic acid], the inhibition at 3.3 µM is 101%. With `N=C(N)Nc1ccc2c(c1)CCCOc1c(cccc1C(=O)N1CCC[C@H]1C(=O)N[C@@H](CC(=O)O)C(=O)O)OC2=O` [Example 99, 1-((10-Carbamimidamido-13-oxo-6,7,8,13-tetrahydrodibenzo[b,f][1,4]dioxecin-4-yl)carbonyl)-L-prolyl-L-aspartic acid] the figure was 100%. With `N=C(N)Nc1ccc2c(c1)OCCCc1c(CCC(=O)N[C@@H](CC(=O)O)C(=O)O)cccc1OC2=O` [Example 79, N-(3-(3-Carbamimidamido-14-oxo-7,8-dihydro-6H,14H-dibenzo[b,f][1,5]dioxecin-9-yl)propanoyl)-L-aspartic acid] the figure was 101%; with `N=C(N)Nc1ccc2c(c1)CCCOc1c(cccc1C(=O)N(CC(=O)O)CC(=O)O)OC2=O` [Example 14, 2,2′-(((10-carbamimidamido-13-oxo-6,7,8,13-tetrahydro-dibenzo[b,f] [1,4]dioxecin-4-yl)carbonyl)imino) diacetic acid], 101%.

As to `COCCN(C(=O)c1cccc2c1OCCCc1cc(NC(=N)N)ccc1C(=O)O2)[C@@H](CC(=O)O)C(=O)O` [Example 109, N-((10-carbamimidamido-13-oxo-6,7,8,13-tetrahydro-dibenzo[b,f] [1,4]dioxecin-4-yl)carbonyl)-N-(2-methoxyethyl)-L-aspartic acid], the inhibition at 3.3 µM turned out to be 100%. With `N=C(N)Nc1ccc2c(c1)CCCOc1c(cccc1C(=O)N[C@H](CC(=O)O)C(=O)O)OC2=O` [Example 2, N-((10-Carbamimidamido-13-oxo-6,7,8,13-tetrahydrodibenzo[b,f][1,4]dioxecin-4-yl)carbonyl)-D-aspartic acid] the figure was 101%. With `N=C(N)Nc1ccc2c(c1)CCCOc1c(cccc1C(=O)N(Cc1cccc(C(=O)O)c1)C(CC(=O)O)CC(=O)O)OC2=O` [Example 144, 3-(((10-Carbamimidamido-13-oxo-6,7,8,13-tetrahydrodibenzo[b,f][1,4]dioxecin-4-yl)carbonyl) (3-carboxybenzyl)amino)pentanedioic acid] the figure was 99%; with `N=C(N)Nc1ccc2c(c1)COc1c(cccc1C(=O)N[C@@H](CC(=O)O)C(=O)O)OC2=O` [Example 19, N-((9-Carbamimidamido-6-oxo-6,11-dihydrodibenzo[b,f][1,4]dioxocin-1-yl)carbonyl)-L-aspartic acid trifluoroacetate], 99%; with `N=C(N)Nc1ccc2c(c1)CCCCc1sc(C(=O)N[C@@H](CC(=O)O)C(=O)O)cc1OC2=O` [Example 26, N-((9-Carbamimidamido-12-oxo-5,6,7,12-tetrahydro-4H-thieno[3,2-c][2]benzooxecin-2-yl)carbonyl)-L-aspartic acid], 45%. With `N=C(N)Nc1ccc2c(c1)CCCOc1c(cccc1C(=O)N(CC(=O)O)[C@@H](Cc1ccccc1)C(=O)O)OC2=O` [Example 133, N-((10-carbamimidamido-13-oxo-6,7,8,13-tetrahydro-dibenzo[b,f] [1,4]dioxecin-4-yl)carbonyl)-N-(carboxymethyl)-L-phenylalanine] the figure was 100%. As for `N=C(N)Nc1ccc2c(c1)CCCOc1c(ccc(CCC(=O)NC(CC(=O)O)CC(=O)O)c1C(=O)O)OC2=O` [Example 131, 3-((3-(10-carbamimidamido-4-carboxy-13-oxo-6,7,8,13-tetrahydro-dibenzo[b,f] [1,4]dioxecin-3-yl)propanoyl)amino) pentanedioic acid], the inhibition at 3.3 µM worked out at 100%.

`N=C(N)Nc1ccc2c(c1)CCCOc1c(cccc1C(=O)N1CCC(C(=O)N[C@@H](CC(=O)O)C(=O)O)CC1)OC2=O` [Example 101, N-((1-((10-carbamimidamido-13-oxo-6,7,8,13-tetrahydro-dibenzo[b,f] [1,4]dioxecin-4-yl)carbonyl)-piperidin-4-yl)carbonyl)-L-aspartic acid]: the inhibition at 3.3 µM came out at 100%. As for `N=C(N)Nc1ccc2c(c1)CCCOc1c(ccc(CCC(=O)O)c1C(=O)N(CCN(CC(=O)O)CC(=O)O)CC(=O)O)OC2=O` [Example 149], the inhibition at 3.3 µM was 101%. With `N=C(N)Nc1ccc2c(c1)CCCOc1c(cccc1C(=O)N[C@@H](CCC(=O)O)C(=O)O)OC2=O` [Example 18, N-((10-Carbamimidamido-13-oxo-6,7,8,13-tetrahydrodibenzo[b,f][1,4]dioxecin-4-yl)carbonyl)-L-glutamic acid] the figure was 101%. With `N=C(N)Nc1ccc2c(c1)CCCOc1c(ccc(CCC(=O)NC(CC(=O)O)CC(=O)O)c1C(=O)N[C@@H](Cc1ccc(O)cc1)C(=O)O)OC2=O` [Example 123, 3-((3-(10-carbamimidamido-4-(((1S)-1-carboxy-2-(4-hydroxyphenyl)ethyl)carbamoyl)-13-oxo-6,7,8,13-tetrahydro-dibenzo[b,f] [1,4]dioxecin-3-yl)propanoyl)amino) pentanedioic acid], the inhibition at 3.3 µM came out at 101%. With `N=C(N)Nc1ccc2c(c1)CCCOc1c(cccc1C(=O)N(CC(=O)O)Cc1cccc(C(=O)O)c1)OC2=O` [Example 71, 3-((((10-Carbamimidamido-13-oxo-6,7,8,13-tetrahydrodibenzo[b,f][1,4]dioxecin-4-yl)carbonyl) (carboxymethyl)amino)methyl)benzoic acid] the figure was 100%; with `N=C(N)Nc1ccc2c(c1)CCCOc1c(cccc1C(=O)N[C@@H](CC(N)=O)C(=O)O)OC2=O` [Example 17, N^~2^~-((10-carbamimidamido-13-oxo-6,7,8,13-tetrahydro-dibenzo[b,f] [1,4]dioxecin-4-yl)carbonyl)-L-asparagine], 100%; with `Cc1cc2c(c(C(=O)N[C@@H](CC(=O)O)C(=O)O)c1)CCCCc1cc(NC(=N)N)ccc1C(=O)O2` [Example 72, N-((3-carbamimidamido-11-methyl-14-oxo-5,7,8,14-tetrahydro-6H-dibenzo[b,h]oxecin-9-yl)carbonyl)-L-aspartic acid], 101%. With `N=C(N)Nc1ccc2c(c1)CCCOc1c(CCC(=O)N[C@@H](CCC(=O)O)C(=O)O)cccc1OC2=O` [Example 93, N-(3-(10-carbamimidamido-13-oxo-6,7,8,13-tetrahydro-dibenzo[b,f] [1,4]dioxecin-4-yl)propanoyl)-L-glutamic acid] the figure was 100%.
